Reference: PubChem BioAssay (NCI)
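GI50 = concentration required for 50% inhibition of growth. TGI: total growth inhibition.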

Assays:
Test in all cases: NCI tumour cell line growth inhibition, 384-well format
MDA-MB-468 breast = tested on: MDA-MB-468 breast
UACC-257 melanoma = tested on: UACC-257 melanoma
NCI-H522 lung = tested on: NCI-H522 lung
HOP-92 NSCLC = tested on: HOP-92 NSCLC
OVCAR-4 ovarian = tested on: OVCAR-4 ovarian
NCI-H322M lung = tested on: NCI-H322M lung
NCI-H23 lung = tested on: NCI-H23 lung
HT29 colon = tested on: HT29 colon
KM12 colon = tested on: KM12 colon
SNB-19 CNS = tested on: SNB-19 CNS
SW-620 colon = tested on: SW-620 colon
SK-MEL-5 melanoma = tested on: SK-MEL-5 melanoma
ACHN renal = tested on: ACHN renal
TK-10 renal = tested on: TK-10 renal
SF-295 CNS = tested on: SF-295 CNS
UO-31 renal = tested on: UO-31 renal
OVCAR-5 ovarian = tested on: OVCAR-5 ovarian
MCF7 breast = tested on: MCF7 breast
SK-MEL-28 melanoma = tested on: SK-MEL-28 melanoma
HOP-62 NSCLC = tested on: HOP-62 NSCLC
LOX IMVI melanoma = tested on: LOX IMVI melanoma
NCI-H226 lung = tested on: NCI-H226 lung
OVCAR-3 ovarian = tested on: OVCAR-3 ovarian
HCT-15 colon = tested on: HCT-15 colon
BT-549 breast = tested on: BT-549 breast
IGROV1 ovarian = tested on: IGROV1 ovarian
HL-60(TB) leukemia = tested on: HL-60(TB) leukemia
U251 glioblastoma = tested on: U251 glioblastoma
SR leukemia = tested on: SR leukemia
DU-145 prostate = tested on: DU-145 prostate
COLO 205 colon = tested on: COLO 205 colon
MALME-3M melanoma = tested on: MALME-3M melanoma
CAKI-1 renal = tested on: CAKI-1 renal
A498 renal = tested on: A498 renal
MOLT-4 leukemia = tested on: MOLT-4 leukemia
T-47D breast = tested on: T-47D breast
M14 melanoma = tested on: M14 melanoma
HS 578T breast = tested on: HS 578T breast
MDA-MB-231 breast = tested on: MDA-MB-231 breast
786-0 renal = tested on: 786-0 renal
HCT-116 colon = tested on: HCT-116 colon
PC-3 prostate = tested on: PC-3 prostate
SK-OV-3 ovarian = tested on: SK-OV-3 ovarian
OVCAR-8 ovarian = tested on: OVCAR-8 ovarian
SNB-75 CNS = tested on: SNB-75 CNS
SF-539 CNS = tested on: SF-539 CNS
HCC-2998 colon = tested on: HCC-2998 colon
NCI-H460 NSCLC = tested on: NCI-H460 NSCLC
UACC-62 melanoma = tested on: UACC-62 melanoma
RXF 393 renal = tested on: RXF 393 renal
A549 NSCLC = tested on: A549 NSCLC
NCI/ADR-RES ovarian = tested on: NCI/ADR-RES ovarian
SN12C renal = tested on: SN12C renal
MDA-MB-435 melanoma = tested on: MDA-MB-435 melanoma
RPMI-8226 leukemia = tested on: RPMI-8226 leukemia
EKVX NSCLC = tested on: EKVX NSCLC
SF-268 CNS = tested on: SF-268 CNS

COC(=O)C[C@](O)(CCCC(C)(C)O)C(=O)O[C@@H]1C(OC)=C[C@]23CCCN2CCc2cc4c(cc2[C@H]13)OCO4
GI50 (MDA-MB-468 breast): < 10 nM
TGI (MDA-MB-468 breast): 19.9 nM
GI50 (UACC-257 melanoma): 26.5 nM
TGI (UACC-257 melanoma): 65.6 nM
GI50 (NCI-H522 lung): < 10 nM
TGI (NCI-H522 lung): 17.3 nM
GI50 (HOP-92 NSCLC): 37.9 nM
TGI (HOP-92 NSCLC): 102 nM
GI50 (OVCAR-4 ovarian): 26.5 nM
TGI (OVCAR-4 ovarian): 72.1 nM
GI50 (NCI-H322M lung): 84.4 nM
TGI (NCI-H322M lung): 287 nM
GI50 (NCI-H23 lung): 17.6 nM
TGI (NCI-H23 lung): 36.9 nM
GI50 (HT29 colon): 21.4 nM
TGI (HT29 colon): 66.3 nM
GI50 (KM12 colon): 27.5 nM
TGI (KM12 colon): 183 nM
GI50 (SNB-19 CNS): 29.8 nM
TGI (SNB-19 CNS): > 100000 nM
GI50 (SW-620 colon): 30.4 nM
TGI (SW-620 colon): 183 nM
GI50 (SK-MEL-5 melanoma): 13 nM
TGI (SK-MEL-5 melanoma): 36.6 nM
GI50 (ACHN renal): 43.2 nM
TGI (ACHN renal): 304 nM
GI50 (TK-10 renal): 48.7 nM
TGI (TK-10 renal): 894 nM
GI50 (SF-295 CNS): 26 nM
TGI (SF-295 CNS): 55.9 nM
GI50 (UO-31 renal): 295 nM
TGI (UO-31 renal): 1090 nM
GI50 (OVCAR-5 ovarian): 48.9 nM
TGI (OVCAR-5 ovarian): 806 nM
GI50 (MCF7 breast): < 10 nM
TGI (MCF7 breast): 1450 nM
GI50 (SK-MEL-28 melanoma): 25.7 nM
TGI (SK-MEL-28 melanoma): 62.5 nM
GI50 (HOP-62 NSCLC): 26.3 nM
TGI (HOP-62 NSCLC): 134 nM
GI50 (LOX IMVI melanoma): < 10 nM
TGI (LOX IMVI melanoma): 21.9 nM
GI50 (NCI-H226 lung): 11.9 nM
TGI (NCI-H226 lung): 38 nM
GI50 (OVCAR-3 ovarian): 13.8 nM
TGI (OVCAR-3 ovarian): 41.1 nM
GI50 (HCT-15 colon): 47.7 nM
TGI (HCT-15 colon): 233 nM
GI50 (BT-549 breast): 17.1 nM
TGI (BT-549 breast): 34.8 nM
GI50 (IGROV1 ovarian): 24 nM
TGI (IGROV1 ovarian): 115 nM
GI50 (HL-60(TB) leukemia): < 10 nM
TGI (HL-60(TB) leukemia): < 10 nM
GI50 (U251 glioblastoma): 21.4 nM
TGI (U251 glioblastoma): 66.9 nM
GI50 (SR leukemia): < 10 nM
TGI (SR leukemia): < 10 nM
GI50 (DU-145 prostate): 29.9 nM
TGI (DU-145 prostate): 85 nM
GI50 (COLO 205 colon): 25.9 nM
TGI (COLO 205 colon): 120 nM
GI50 (MALME-3M melanoma): 15 nM
TGI (MALME-3M melanoma): 33.2 nM
GI50 (CAKI-1 renal): 42.4 nM
TGI (CAKI-1 renal): 266 nM
GI50 (A498 renal): 19 nM
TGI (A498 renal): 44.9 nM
GI50 (MOLT-4 leukemia): < 10 nM
TGI (MOLT-4 leukemia): < 10 nM
GI50 (T-47D breast): 27.5 nM
TGI (T-47D breast): 187 nM
GI50 (M14 melanoma): 20.3 nM
TGI (M14 melanoma): 41.6 nM
GI50 (HS 578T breast): 18 nM
TGI (HS 578T breast): 34.6 nM
GI50 (MDA-MB-231 breast): 31.6 nM
TGI (MDA-MB-231 breast): 105 nM
GI50 (786-0 renal): 26 nM
TGI (786-0 renal): 147 nM
GI50 (HCT-116 colon): < 10 nM
TGI (HCT-116 colon): 88.7 nM
GI50 (PC-3 prostate): 26 nM
TGI (PC-3 prostate): 139 nM
GI50 (SK-OV-3 ovarian): 26 nM
TGI (SK-OV-3 ovarian): 172 nM
GI50 (OVCAR-8 ovarian): 25.9 nM
TGI (OVCAR-8 ovarian): 66.8 nM
GI50 (SNB-75 CNS): 32.1 nM
TGI (SNB-75 CNS): 78.9 nM
GI50 (SF-539 CNS): 17.2 nM
TGI (SF-539 CNS): 33.3 nM
GI50 (HCC-2998 colon): < 10 nM
TGI (HCC-2998 colon): 25.3 nM
GI50 (NCI-H460 NSCLC): < 10 nM
TGI (NCI-H460 NSCLC): 17 nM
GI50 (UACC-62 melanoma): 31.8 nM
TGI (UACC-62 melanoma): 107 nM
GI50 (RXF 393 renal): 17.4 nM
TGI (RXF 393 renal): 47.9 nM
GI50 (A549 NSCLC): 18 nM
TGI (A549 NSCLC): 115 nM
GI50 (NCI/ADR-RES ovarian): 1780 nM
TGI (NCI/ADR-RES ovarian): 7740 nM
GI50 (SN12C renal): 40.4 nM
TGI (SN12C renal): 267 nM
GI50 (MDA-MB-435 melanoma): 43.4 nM
TGI (MDA-MB-435 melanoma): 130 nM
GI50 (RPMI-8226 leukemia): < 10 nM
TGI (RPMI-8226 leukemia): 15.5 nM
GI50 (EKVX NSCLC): 36.5 nM
TGI (EKVX NSCLC): 201 nM
GI50 (SF-268 CNS): 31.1 nM
TGI (SF-268 CNS): 85.2 nM
